The text below walks through data of US20240002379A1, “ASYMMETRIC CONJUGATE COMPOUNDS” (Pheon Therapeutics Ltd., priority 2016, published 2024).

This test relates to TyrT DNA fragment. The experiment in a line: DNA cleavage assay, TyrT fragment. Type of test: biochemical. As to the method:
The ability of 13 and of a series of compounds to cleave double-stranded DNA was investigated using a modification of the previously established DNA footprinting assay (34). Following an overnight incubation of the ligand-DNA complexes, the mixture was mixed with strand separation buffer containing 10 mM EDTA, 10 mM NaOH, 0.1% bromophenol blue, 80% formamide and incubated at 100° C. for 3 min. The mixture was then immediately cooled on ice and run on an 8% denaturing gel. […] Using the GA marker, these additional bands were identified as cleavage products produced by 13 at certain A sites of the DNA fragment.
The preparation of the TyrT DNA fragment (FIG. 8) and HexARev DNA fragment (FIG. 15) have been previously described (34). Briefly, the sequence which had been cloned into the BamHI site of pUC18 was obtained by cutting with HindIII and EcoRI. Radiolabelled DNA fragments were prepared by filling in the 3′-end of the HindIII site with [α-^32P]dATP using Klenow DNA polymerase (exo-).
The radiolabelled DNA fragment was separated from the remainder of the plasmid DNA on a 6% non-denaturing polyacrylamide gel. The gel (20 cm long, 0.3 mm thick) was run at 400 V in 1×TBE running buffer for about 1-2 h, until the bromophenol blue had run most of the way down the gel. […]

Consider `COc1cc2c(cc1OCCCC(=O)N1C[C@@H](CCl)c3c1cc(O)c1ccccc31)N=C[C@@H]1CCCCN1C2=O` [Compound 13, (S)-3-(4-((S)-1-(Chloromethyl)-5-hydroxy-1,2-dihydro-3H-benzo[e]indol-3-yl)-4-oxobutoxy)-2-methoxy-7,8,9,10-tetrahydrobenzo[e]-pyrido[1,2-a][1,4]diazepin-12(6aH)-one], for which, under “cleavage at A sites”, the “number of preferred sites observed in the TyrT DNA fragment” value is reported as “three”. Also, the “cleavage of TyrT DNA fragment” value (overnight incubation, 100° C. for 3 min, 8% denaturing gel (FIG. 11)) was “distinct cleavage patterns”.
